From publication PMC12467512, “Pharmacological Characterization of the Novel CRF1 Receptor Antagonist, Thiazolo[4,5-d] Pyrimidine Analog, M43” (Biomolecules, 2025) come the findings set out here.

The test concerns the target T1, CRF1R (type 1 receptor for the corticotropin-releasing factor) (Homo sapiens, UniProt P34998).
T1 construct: gene CRHR1
T1 sequence (P34998 24-415): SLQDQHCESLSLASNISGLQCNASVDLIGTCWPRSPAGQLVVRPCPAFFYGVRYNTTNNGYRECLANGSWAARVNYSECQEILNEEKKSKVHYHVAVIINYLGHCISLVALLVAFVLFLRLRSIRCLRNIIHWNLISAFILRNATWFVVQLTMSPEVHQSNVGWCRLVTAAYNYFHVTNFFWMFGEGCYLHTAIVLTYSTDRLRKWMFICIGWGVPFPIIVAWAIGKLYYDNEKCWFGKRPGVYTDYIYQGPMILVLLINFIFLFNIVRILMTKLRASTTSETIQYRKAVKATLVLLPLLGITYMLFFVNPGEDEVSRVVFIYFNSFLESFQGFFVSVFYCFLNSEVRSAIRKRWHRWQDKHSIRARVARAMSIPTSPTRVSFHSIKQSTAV
In words: inhibition of cAMP accumulation stimulated by […] Tyr0-sauvagine in HEK […] cells stably expressing human CRF1R; also […] shift of agonist potency at […] M43. The format is cell-based. (In general: Changes in cAMP serve as a functional read-out for many G protein-coupled receptors.)

The structures appear in SMILES notation.

In general, IC50 refers to the concentration needed to halve the response being measured. In the case of `CCCCN(CC)c1nc(C)nc2c1s/c(=N\O)n2-c1c(Cl)cc(Cl)cc1Cl` [M43], the 50% inhibitory concentration (IC50) was 43.5 nM.
